The values below come from US20130189352A1 (ZHEJIANG UNIVERSITY, priority 2011, published 2013).

The subject of data set [1] is human breast cancer cells (MCF-7). Kind of data set: MTT cytotoxicity test, MCF-7. The data set is classed as cell-based. The conditions noted are these: read-out: IC50 MCF-7. As to the method:
(§1) The cells suspension solution was seeded in 96-well plates with 100 μL solution per well containing 5000-10000 cells. […] The drug-loaded liposomes and doxorubicin were separately solved in saline solutions. […] These different formulations were added 25 μl per well in increasing concentrations to the wells of the 96-well plate. The cells were allowed to grow for 24 hours before adding 31.5 μl MTT (5 mg/mL) per well. Finally, about 4 hours later, all of the culture medium was removed and the precipitates were dissolved in 200 μl dimethyl sulfoxide (DMSO). […] The above tests were repeated three times for each group and each concentration has four wells. […] The IC50 values were calculated by IC50.exe software.
For orientation: Formazan colour is commonly taken as a measure of viable cells.

Data set [2] concerns doxorubicin-resistant human breast cancer MCF-7 (MCF-7/ADR). Nature of the data set: MTT cytotoxicity test, MCF-7/ADR. The data set is classed as cell-based. The conditions noted are these: NCI/ADR-RES, read-out: IC50 MCF-7/ADR. As for the experimental part: as §1
Data set [3] concerns human promyelocytic leukemia cells (HL60). Nature of the data set: MTT cytotoxicity test, HL60. The data set is classed as cell-based. The conditions noted are these: read-out: IC50 HL60. As for the experimental part:
as §1

Data set [4] concerns doxorubicin-resistance human promyelocytic leukemia cell (HL60/ADR). Nature of the data set: MTT cytotoxicity test, HL60/ADR. The conditions noted are these: read-out: IC50 HL60/ADR. The data set is classed as cell-based. As for the experimental part:
as §1

For data set [5] the following is noted: cited from earlier work.
[6] abbreviates: MTT, 24 hours drug exposure, concentrations based on the amount of doxorubicin.

Structures are written as SMILES. ≈ marks a conversion by molar mass, not a printed value. Like-named read-outs stand apart in the source and are kept apart here.

On to `COc1cccc2c1C(=O)c1c(O)c3c(c(O)c1C2=O)C[C@@](O)(C(=O)CO)C[C@@H]3O[C@H]1C[C@H](N)[C@H](O)[C@H](C)O1` [Control 1, doxorubicin], for which the IC50 in data set [1] (MCF7, MTT, 24 hours drug exposure, concentrations based on the amount of doxorubicin) amounted to 0.4 µg/mL (≈ 0.736 µM); in data set [2] (setting [6]), 15.7 µg/mL (≈ 28.9 µM); in data set [3] (HL-60, MTT, 24 hours drug exposure, concentrations based on the amount of doxorubicin) it was 0.4 µg/mL (≈ 0.736 µM); in data set [4] (setting [6]), 13.6 µg/mL (≈ 25 µM). In data set [5], the PKa was 4.0.
Regarding `CCN(CC)CCCC(C)Nc1ccnc2cc(Cl)ccc12` (stereo not drawn) [Control 2, chloroquine], the IC50 in data set [1] (MCF7, 24 h) was found to be 18.1 µg/mL (≈ 56.6 µM); in data set [2] (24 h), 23.3 µg/mL (≈ 72.8 µM); in data set [3] (HL-60, 24 h) it was 17.3 µg/mL (≈ 54.1 µM); in data set [4] (24 h), 11.2 µg/mL (≈ 35 µM).
